We go through 1 compound from patent US12636323B2, “Use of Clostridium ghonii combined with tumor angiogenesis inhibitor” (priority 2021, dated 2026).

The nature of data set [1]: Death and net body weight of tumor-bearing mice in Example 3. It counts as in vivo, BALB/c mice. To be noted: mean ± SD, n=7. The method, then: Clinical observation: during an administration period, animal behaviors, death or near-death, etc. were observed using the naked eyes once every morning and afternoon.
Body weight: during the administration period, body weight was measured on the day of the tumor measurement from the day of treatment.
(§1) According to a random principle, the conforming mice (a tumor volume of 0.31-0.41 cm^3) were divided into 8 groups by lottery: control group, spore group, high-dose apatinib (AITAN) group, medium-dose apatinib (AITAN) group, low-dose apatinib (AITAN) group, Clostridium ghonii combined low-dose apatinib (AITAN) group, Clostridium ghonii combined medium-dose apatinib (AITAN) group, and Clostridium ghonii combined high-dose apatinib (AITAN) group.
(§2) Control group: the mice were intratumorally administrated with a same volume of a 0.9% sodium chloride injection; • spore group: the mice were intratumorally administrated at a dose of 1×10^7 cfu/tumor/time twice; • High-dose apatinib (AITAN) group: the mice were gavaged at a dose of 180 mg/kg/d once every day for a total of 7 times; • Medium-dose apatinib (AITAN) group: the mice were gavaged at a dose of 120 mg/kg/d once every day for a total of 7 times; • Low-dose apatinib (AITAN) group: the mice were gavaged at a dose of 60 mg/kg/d once every day for a total of 7 times; and
(§3) Clostridium ghonii combined apatinib (AITAN) groups: mice were first intratumorally administrated with apatinib (AITAN) once every day for 3 days and then Clostridium ghonii spores at a dose of 1×10^7 cfu/tumor/time once every other day for a total of two times. The dose of the apatinib (AITAN) in the combined high, medium and low-dose apatinib (AITAN) groups was the same as that in the high, medium and low-dose apatinib (AITAN) groups.

The subject of data set [2] is CT26 tumor cells. Nature of the data set: Antitumor effect of Clostridium ghonii spores combined with different doses of apatinib (AITAN) in CT26 mouse model. To be noted: for Tumor inhibition rate (row head: Anti-bacterial rate): calculated from tumor weight; for Tumor weight: n=7; for Cure rate: tumors completely eliminated at end of experiment. It counts as in vivo, BALB/c mice. The method, then:
BALB/c mice were subcutaneously inoculated with CT26 tumor cells to establish a subcutaneous tumor model for colon cancer. 0.2 mL of a cell suspension with a concentration of 7.5×10^6 cells/mL (acceptable range: 6.75×10^6 cells/mL-8.25×10^6 cells/mL) was extracted with a 1-mL disposable sterile syringe and slowly subcutaneously injected into axillae of right forelimbs of mice (pre-sterilized with 75% alcohol). After injection, needle eyes were gently pressed with dry cotton balls.
Tumor measurement: a maximum long diameter (L) and a maximum transverse diameter (W) of a tumor (including a thickness of a mouse skin) were measured with a vernier caliper, and a tumor volume was calculated according to a formula of
Tumor weight: a tumor tissue was dissected out and weighed and tumor weight was recorded.
Tumor inhibition rate (IRTW%)=(average tumor weight of control group-average tumor weight of experimental group)/average tumor weight of control group×100%.
as §1, §2, §3

Setting [3] is: medium-dose apatinib 120 mg/kg/d.

As to `N#CC1(c2ccc(NC(=O)c3cccnc3NCc3ccncc3)cc2)CCCC1` [apatinib (AITAN), apatinib], the Net body weight in data set [1] (high-dose apatinib 180 mg/kg/d) was 18.44 ± 1.42 g; in data set [1] (low-dose apatinib 60 mg/kg/d), 18.32 ± 1.12 g; in data set [1] (setting [3]) it was 18.02 ± 1.61 g. Moreover, the Tumor volume in data set [2] (D-1, Table 2 (low-dose apatinib)) was 1049.42 ± 166.37 mm^3; in data set [2] (D-1, upper part of Table 2, low-dose apatinib 60 mg/kg/d), 931.50 ± 97.91 mm; in data set [2] (D-4, Table 2 (low-dose apatinib)) it was 1499.45 ± 303.10 mm^3; in data set [2] (D-4, upper part of Table 2, low-dose apatinib 60 mg/kg/d), 1489.82 ± 232.84 mm; in data set [2] (D-8, Table 2 (low-dose apatinib)), 2442.80 ± 882.95 mm^3; in data set [2] (D-8, upper part of Table 2, low-dose apatinib 60 mg/kg/d), 2275.35 ± 348.84 mm. The “Tumor inhibition rate (row head: Anti-bacterial rate)” value in data set [2] (high-dose apatinib 180 mg/kg/d) was 21.68%; in data set [2] (low-dose apatinib 60 mg/kg/d), 20.21%; in data set [2] (setting [3]), 13.89%. For the same compound, the Tumor weight is recorded as 3.49 ± 0.86 g in data set [2] (high-dose apatinib 180 mg/kg/d), 3.55 ± 0.61 g in data set [2] (low-dose apatinib 60 mg/kg/d) and 3.84 ± 0.69 g in data set [2] (setting [3]). The Cure rate in data set [2] (high-dose apatinib 180 mg/kg/d), in data set [2] (low-dose apatinib 60 mg/kg/d) and in data set [2] (setting [3]) was 0% each time.
